# Assay results from PubChem BioAssay AID218 (DTP/NCI, 2004).
# Values joined by “and” are separate entries in the source; they are usually repeats but may differ in a detail not shown here. Equal values may be shown once.
# System: C57BL/6 mice, Adenocarcinoma 755 sc, tumor weight T/C
# Assay: NCI In Vivo Anticancer Drug Screen. Data for tumor model Adenocarcinoma 755 (subcutaneous) in C57BL/6 mice
# Conditions: endpoint: mean tumor weight, higher = larger tumour
# Procedure: The antitumor activity of compounds was measured in mice bearing transplantable tumors. Survival or tumor size were measured and the results are expressed as the measurement made in the treated group (T) divided by the measurement made in the vehicle treated control group (C). The tumor model used in this assay is Adenocarcinoma 755 (subcutaneous) in C57BL/6 mice
# [1] = dose: 20.0 mg/kg/injection, schedule: Q01DX011 (ip), vehicle: saline
# [2] = dose: 30.0 mg/kg/injection, schedule: Q01DX011 (ip), vehicle: saline
# [3] = dose: 40.0 mg/kg/injection, schedule: Q01DX011 (ip), vehicle: saline
# [4] = dose: 2.5 mg/kg/injection, schedule: Q01DX011 (ip), vehicle: carboxymethylcellulose (CMC)
# [5] = dose: 12.5 mg/kg/injection, schedule: Q01DX011 (ip), vehicle: saline
# [6] = dose: 25.0 mg/kg/injection, schedule: Q01DX011 (ip), vehicle: saline
# [7] = dose: 50.0 mg/kg/injection, schedule: Q01DX011 (ip), vehicle: saline
# [8] = dose: 100.0 mg/kg/injection, schedule: Q01DX011 (ip), vehicle: saline
# [9] = dose: 0.13 mg/kg/injection, schedule: Q01DX011 (ip), vehicle: saline
# [10] = dose: 0.2 mg/kg/injection, schedule: Q01DX011 (ip), vehicle: saline
# [11] = dose: 150.0 mg/kg/injection, schedule: Q02DX006 (ip), vehicle: saline
# [12] = dose: 200.0 mg/kg/injection, schedule: Q02DX006 (ip), vehicle: saline
# [13] = dose: 200.0 mg/kg/injection, schedule: Q01DX011 (ip), vehicle: saline
structure (smiles),measurement,setting,value
CS(=O)(=O)OCCCOS(C)(=O)=O,T/C,"dose: 15.0 mg/kg/injection, schedule: Q01DX011 (ip), vehicle: methylcellulose (MC)",83 % of control
same,T/C,"dose: 30.0 mg/kg/injection, schedule: Q01DX011 (ip), vehicle: methylcellulose (MC)",35 % of control
CN(Cc1cnc2nc(N)nc(N)c2n1)c1ccc(C(=O)N[C@@H](CCC(=O)O)C(=O)O)cc1,T/C,"dose: 0.75 mg/kg/injection, schedule: Q01DX011 (ip), vehicle: saline",74 % of control
same,T/C,"dose: 1.0 mg/kg/injection, schedule: Q01DX011 (ip), vehicle: saline",105 % of control
same,T/C,"dose: 1.5 mg/kg/injection, schedule: Q01DX011 (ip), vehicle: saline",45 % of control
same,T/C,"dose: 2.0 mg/kg/injection, schedule: Q01DX011 (ip), vehicle: saline",87 % of control
Nc1[nH]c(=O)nc2c1ncn2C1OC(CO)C(O)C1O (centres undefined),T/C,[1],100 % of control
same,T/C,[2],42 % of control
same,T/C,[3],58 % of control
CS(=O)(=O)OCCCCOS(C)(=O)=O,T/C,[4],86 % of control
same,T/C,"dose: 5.0 mg/kg/injection, schedule: Q01DX011 (ip), vehicle: carboxymethylcellulose (CMC)",57 % of control
same,T/C,"dose: 10.0 mg/kg/injection, schedule: Q01DX011 (ip), vehicle: carboxymethylcellulose (CMC)",69 % of control
same,T/C,"dose: 10.0 mg/kg/injection, schedule: Q02DX006 (ip), vehicle: other",59 % of control
same,T/C,"dose: 12.5 mg/kg/injection, schedule: Q02DX006 (ip), vehicle: other",51 % of control
same,T/C,"dose: 15.0 mg/kg/injection, schedule: Q01DX011 (ip), vehicle: carboxymethylcellulose (CMC)",56 % of control
same,T/C,"dose: 15.0 mg/kg/injection, schedule: Q02DX006 (ip), vehicle: other",76 % of control
same,T/C,"dose: 20.0 mg/kg/injection, schedule: Q01DX011 (ip), vehicle: carboxymethylcellulose (CMC)",49 % of control
same,T/C,"dose: 25.0 mg/kg/injection, schedule: Q01DX011 (ip), vehicle: carboxymethylcellulose (CMC)",26 % of control
O=c1cn[nH]c(=O)[nH]1,T/C,"dose: 100.0 mg/kg/injection, schedule: Q01DX011 (ip), vehicle: carboxymethylcellulose (CMC)",159 % of control
same,T/C,"dose: 200.0 mg/kg/injection, schedule: Q01DX011 (ip), vehicle: carboxymethylcellulose (CMC)",110 % of control
Clc1ncnc2c1ncn2Cc1ccco1,T/C,[5],63 % of control
same,T/C,[6],62 % of control
same,T/C,[7],86 % of control
same,T/C,[8],51 % of control
COC1=C(N)C(=O)c2nc(-c3nc(C(=O)O)c(C)c(-c4ccc(OC)c(OC)c4O)c3N)ccc2C1=O,T/C,"dose: 0.06 mg/kg/injection, schedule: Q01DX011 (ip), vehicle: saline",84 % of control
same,T/C,"dose: 0.09 mg/kg/injection, schedule: Q01DX011 (ip), vehicle: saline",77 % of control
same,T/C,[9],64 % of control
same,T/C,[10],38 % of control
O=C(O)c1[nH]c(=O)[nH]c(=O)c1Br,T/C,[7],54 % of control
NNc1ncnc2nc[nH]c12,T/C,[2],67 % of control
same,T/C,"dose: 60.0 mg/kg/injection, schedule: Q01DX011 (ip), vehicle: saline",34 % of control
N/C(=N\N=C\c1cccc([N+](=O)[O-])c1)N[N+](=O)[O-],T/C,[11],24 % of control
same,T/C,[12],41 % of control
OCC1OC(n2cnc3c(=S)nc[nH]c32)C(O)C1O (centres undefined),T/C,"dose: 0.5 mg/kg/injection, schedule: Q01DX011 (ip), vehicle: carboxymethylcellulose (CMC)",29 % of control
same,T/C,"dose: 1.25 mg/kg/injection, schedule: Q01DX011 (ip), vehicle: carboxymethylcellulose (CMC)",13 % of control
same,T/C,[4],3 % of control
same,T/C,"dose: 34.0 mg/kg/injection, schedule: Q01DX011 (ip), vehicle: saline",2 % of control
same,T/C,"dose: 320.0 mg/kg/injection, schedule: Q01DX001 (oral), vehicle: alkali diluted with saline",10 % of control
same,T/C,"dose: 320.0 mg/kg/injection, schedule: Q03DX004 (oral), vehicle: alkali diluted with saline",2 % of control
same,T/C,"dose: 320.0 mg/kg/injection, schedule: Q07DX002 (oral), vehicle: alkali diluted with saline",5 % of control
same,T/C,"dose: 480.0 mg/kg/injection, schedule: Q01DX001 (oral), vehicle: alkali diluted with saline",12 % of control
same,T/C,"dose: 480.0 mg/kg/injection, schedule: Q03DX004 (oral), vehicle: alkali diluted with saline",6 % of control
same,T/C,"dose: 480.0 mg/kg/injection, schedule: Q07DX002 (oral), vehicle: alkali diluted with saline",5 % of control
same,T/C,"dose: 640.0 mg/kg/injection, schedule: Q01DX001 (oral), vehicle: alkali diluted with saline",68 % of control
same,T/C,"dose: 640.0 mg/kg/injection, schedule: Q03DX004 (oral), vehicle: alkali diluted with saline",1 % of control
same,T/C,"dose: 640.0 mg/kg/injection, schedule: Q07DX002 (oral), vehicle: alkali diluted with saline",32 % of control
CC(C)CNC(=S)N/N=C/c1ccccc1,T/C,"dose: 75.0 mg/kg/injection, schedule: Q02DX006 (ip), vehicle: other",70 % of control
same,T/C,"dose: 100.0 mg/kg/injection, schedule: Q02DX006 (ip), vehicle: other",94 % of control
CCN(CC)c1ncnc2[nH]ncc12,T/C,[3],25 % of control
same,T/C,[7],23 % of control
CNC=O,T/C,[6],92 % of control
same,T/C,[7],112 % of control
same,T/C,[8],64 % of control and 82 % of control
same,T/C,"dose: 125.0 mg/kg/injection, schedule: Q01DX011 (ip), vehicle: saline",98 % of control
same,T/C,"dose: 175.0 mg/kg/injection, schedule: Q02DX006 (ip), vehicle: water",40 % of control
same,T/C,[13],9 % of control and 30 % of control
same,T/C,"dose: 225.0 mg/kg/injection, schedule: Q02DX006 (ip), vehicle: water",56 % of control
C[C@@H]1CC2=CC(=O)C=C[C@]2(C)[C@H]2CC[C@@]3(C)[C@@H](CC[C@]3(C)O)[C@H]12,T/C,"dose: 50.0 mg/kg/injection, schedule: Q01DX011 (sc), vehicle: steriod suspending solution",70 % of control
same,T/C,"dose: 100.0 mg/kg/injection, schedule: Q01DX011 (sc), vehicle: steriod suspending solution",73 % of control
same,T/C,"dose: 200.0 mg/kg/injection, schedule: Q01DX011 (sc), vehicle: steriod suspending solution",58 % of control
same,T/C,"dose: 400.0 mg/kg/injection, schedule: Q01DX011 (sc), vehicle: steriod suspending solution",29 % of control
CCNc1ncnc2[nH]ncc12,T/C,"dose: 15.0 mg/kg/injection, schedule: Q01DX011 (ip), vehicle: saline",13 % of control
same,T/C,[1],4 % of control
CCOC(N)=O,T/C,[13],34 % of control
same,T/C,"dose: 300.0 mg/kg/injection, schedule: Q01DX011 (ip), vehicle: saline",38 % of control
same,T/C,"dose: 400.0 mg/kg/injection, schedule: Q01DX011 (ip), vehicle: saline",20 % of control
same,T/C,"dose: 500.0 mg/kg/injection, schedule: Q02DX006 (ip), vehicle: water",49 % of control
same,T/C,"dose: 600.0 mg/kg/injection, schedule: Q01DX011 (ip), vehicle: saline",3 % of control
same,T/C,"dose: 600.0 mg/kg/injection, schedule: Q02DX006 (ip), vehicle: water",34 % of control
COC(=O)C(N)CCl (centres undefined),T/C,[11],74 % of control
same,T/C,[12],83 % of control
CCOC(C)C(/C=N/NC(N)=S)=NNC(N)=S (centres undefined),T/C,"dose: 120.0 mg/kg/injection, schedule: Q01DX011 (ip), vehicle: saline",59 % of control
O=C(c1ccc(C(=O)N2CC2)cc1)N1CC1,T/C,"dose: 12.5 mg/kg/injection, schedule: Q01DX011 (ip), vehicle: methylcellulose (MC)",60 % of control
same,T/C,"dose: 25.0 mg/kg/injection, schedule: Q01DX011 (ip), vehicle: methylcellulose (MC)",53 % of control
C1CN1c1nc(N2CC2)nc(N2CC2)n1,T/C,"dose: 0.1 mg/kg/injection, schedule: Q01DX011 (ip), vehicle: saline",28 % of control
same,T/C,"dose: 0.11 mg/kg/injection, schedule: Q01DX011 (ip), vehicle: saline",44 % of control
same,T/C,[9],61 % of control
same,T/C,"dose: 0.15 mg/kg/injection, schedule: Q01DX011 (ip), vehicle: saline",21 % of control
same,T/C,[10],12 % of control
same,T/C,"dose: 0.25 mg/kg/injection, schedule: Q02DX006 (ip), vehicle: saline",80 % of control
same,T/C,"dose: 0.3 mg/kg/injection, schedule: Q01DX011 (ip), vehicle: saline",5 % of control
same,T/C,"dose: 0.5 mg/kg/injection, schedule: Q01DX011 (ip), vehicle: saline",19 % of control
same,T/C,"dose: 0.5 mg/kg/injection, schedule: Q02DX006 (ip), vehicle: saline",121 % of control
CCCCNc1ncnc2c1cnn2C,T/C,[3],3 % of control
same,T/C,[7],13 % of control
O=c1[nH]c(=O)n(C2CC(O)C(CO)O2)cc1C(F)(F)F (centres undefined),T/C,[5],81 % of control
same,T/C,[6],52 % of control
same,T/C,[7],27 % of control
same,T/C,[8],27 % of control
